Experimental findings from US20070208166A1, “Tao Kinase Modulators And Method Of Use” (Exelixis, Inc., priority 2003, published 2007) are described below.

For orientation: IC50 means the concentration at which inhibition is half-maximal.

Structures are written as SMILES.

Holding throughout (assay type): biochemical
The target of one assay is T1, TAO (Homo sapiens, UniProt Q9UL54).
T1 sequence (Q9UL54 1-1235): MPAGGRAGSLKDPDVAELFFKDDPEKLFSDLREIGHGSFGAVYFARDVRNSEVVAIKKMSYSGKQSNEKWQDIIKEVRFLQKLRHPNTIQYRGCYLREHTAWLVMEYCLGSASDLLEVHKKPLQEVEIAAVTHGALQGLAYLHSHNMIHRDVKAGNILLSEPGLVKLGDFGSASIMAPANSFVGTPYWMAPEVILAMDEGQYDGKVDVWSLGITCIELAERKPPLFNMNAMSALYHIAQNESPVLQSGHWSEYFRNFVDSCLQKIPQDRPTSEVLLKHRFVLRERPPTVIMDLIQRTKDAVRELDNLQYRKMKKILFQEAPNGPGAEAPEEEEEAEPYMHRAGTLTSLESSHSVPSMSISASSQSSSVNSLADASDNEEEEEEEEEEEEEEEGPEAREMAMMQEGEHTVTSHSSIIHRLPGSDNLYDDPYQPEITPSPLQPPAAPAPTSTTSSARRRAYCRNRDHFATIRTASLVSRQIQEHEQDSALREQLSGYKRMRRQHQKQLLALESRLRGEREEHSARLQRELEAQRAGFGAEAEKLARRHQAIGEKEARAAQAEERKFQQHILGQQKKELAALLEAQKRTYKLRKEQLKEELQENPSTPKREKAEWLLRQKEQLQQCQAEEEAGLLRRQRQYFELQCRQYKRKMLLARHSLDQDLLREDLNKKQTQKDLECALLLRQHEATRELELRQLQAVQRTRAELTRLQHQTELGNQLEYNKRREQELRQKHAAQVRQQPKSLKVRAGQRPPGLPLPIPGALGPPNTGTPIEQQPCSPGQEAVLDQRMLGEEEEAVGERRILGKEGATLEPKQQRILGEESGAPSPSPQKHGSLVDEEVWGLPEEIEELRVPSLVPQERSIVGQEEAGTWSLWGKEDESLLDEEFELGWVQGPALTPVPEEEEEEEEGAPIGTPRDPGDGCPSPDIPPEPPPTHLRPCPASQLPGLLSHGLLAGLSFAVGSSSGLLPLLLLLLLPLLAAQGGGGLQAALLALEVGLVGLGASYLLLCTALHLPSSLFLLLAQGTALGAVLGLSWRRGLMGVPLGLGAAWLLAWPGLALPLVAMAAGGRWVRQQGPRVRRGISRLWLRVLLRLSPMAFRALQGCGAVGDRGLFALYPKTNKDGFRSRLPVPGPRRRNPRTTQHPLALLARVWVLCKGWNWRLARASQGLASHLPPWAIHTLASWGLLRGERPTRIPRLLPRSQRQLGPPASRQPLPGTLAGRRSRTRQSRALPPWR
Nature of the assay: TAO Luciferase-Coupled Chemiluminescent Kinase assay (LCCA). The settings on record: 2 μM ATP, 10 μM MBP, 12 nM TAO, 2 hours; read-out: TAO inhibition IC50. On the procedure:
(§1) Kinase activity and compound inhibition are investigated using one or more of the three assay formats described below. The ATP concentrations for each assay are selected to be close to the Michaelis-Menten constant (KM) for each individual kinase. Dose-response experiments are performed at 10 different inhibitor concentrations in a 384-well plate format. The data are fitted to four-parameter equation (2) below; where Y is the observed signal, X is the inhibitor concentration, Min is the background signal in the absence of enzyme (0% enzyme activity), Max is the signal in the absence of inhibitor (100% enzyme activity), IC50 is the inhibitor concentration at 50% enzyme inhibition and H represents the empirical Hill's slope to measure the cooperativity. Typically H is close to unity. Y=Min+(Max−Min)/(1+(X/IC50)ˆH) Equation (2) KIAA 1361 Assay: […]
(§2) TAO biochemical activity was assessed using a Luciferase-Coupled Chemiluminescent Kinase assay (LCCA) format. Kinase activity was measured as the percent ATP remaining following the kinase reaction. Remaining ATP was detected by luciferase-luciferin-coupled chemiluminescence. Specifically, the reaction was initiated by mixing test compounds, 2 μM ATP, 10 μM MBP and 12 nM TAO (baculovirus expressed human KIAA 1361 kinase domain 2-322) in a 20 uL assay buffer (20 mM Tris-HCL pH7.5, 10 mM MgCl2, 0.02% Triton X-100, 100 mM DTT, 2 mM MnCl2). The mixture is incubated at ambient temperature for 2 hours after which 20 uL luciferase-luciferin mix is added and the chemiluminescent signal read using a Wallac Victor^2 reader. The luciferase-luciferin mix consists of 50 mM BEPES, pH 7.8, 8.5 ug/mL oxalic acid (pH 7.8), 5 (or 50) mM DTT, 0.4% Triton X-100, 0.25 mg/nL coenzyme A, 63 uM AMP, 28 ug/mL luciferin and 40,000 units of light/mL luciferase.

The target in the next assay is T2, JIK (Homo sapiens, UniProt Q9H2K8).
T2 construct: 6 nM JIK (baculovirus expressed human KIAA 1361 kinase domain2-318); made in house
T2 sequence (Q9H2K8 2-318): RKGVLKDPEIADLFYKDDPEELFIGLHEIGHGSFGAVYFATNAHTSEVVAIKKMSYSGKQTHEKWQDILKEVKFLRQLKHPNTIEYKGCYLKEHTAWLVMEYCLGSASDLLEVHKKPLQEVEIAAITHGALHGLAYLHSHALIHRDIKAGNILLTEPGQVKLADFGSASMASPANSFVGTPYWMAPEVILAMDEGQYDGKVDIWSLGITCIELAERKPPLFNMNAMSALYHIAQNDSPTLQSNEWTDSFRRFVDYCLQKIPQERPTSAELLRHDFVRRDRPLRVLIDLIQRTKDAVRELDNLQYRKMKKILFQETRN
Nature of the assay: JIK Luciferase-Coupled Chemiluminescent Kinase assay (LCCA). The settings on record: 2 μM ATP, 10 μM MBP, 6 nM JIK, 2 hours; read-out: JIK inhibition IC50. On the procedure: as §1
as §2, with “JIK” for “TAO”, “6” for “12”, “domain2-318)” for “domain 2-322)”, “HEPES,” for “BEPES,”, “mg/mL” for “mg/nL”

The target in assay [1] is T3, KIAA 1361 (baculovirus expressed human KIAA 1361 kinase domain 2-322) (Homo sapiens, UniProt Q7L7X3).
T3 construct: human KIAA 1361 kinase domain 2-322; made in house
T3 sequence (Q7L7X3 2-322): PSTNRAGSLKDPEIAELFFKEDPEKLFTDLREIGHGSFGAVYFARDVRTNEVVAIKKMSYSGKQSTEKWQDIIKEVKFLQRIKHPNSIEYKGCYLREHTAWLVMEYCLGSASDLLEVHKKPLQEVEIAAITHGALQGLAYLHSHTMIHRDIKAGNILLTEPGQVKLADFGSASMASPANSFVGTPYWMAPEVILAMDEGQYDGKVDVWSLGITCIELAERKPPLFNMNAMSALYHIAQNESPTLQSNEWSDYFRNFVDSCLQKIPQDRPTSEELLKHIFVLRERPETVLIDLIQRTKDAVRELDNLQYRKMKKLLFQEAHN
Nature of the assay: KIAA 1361 Luciferase-Coupled Chemiluminescent Kinase assay (LCCA). As to conditions: 2 μM ATP, 10 μM MBP, 12 nM KIAA 1361, 2 hours; read-out: KIAA1361 inhibition IC50. The method, then:
as §1
as §2, with “KIAA 1361” for “TAO”, “HEPES,” for “BEPES,”, “mg/mL” for “mg/nL”

Take `CCc1ccc(-c2ccc(C(=O)NCC(=O)NC(CC)c3ccccc3)cc2)cc1` (stereo not drawn) [Entry 83, 4′-ethyl-N-{2-oxo-2-[(1-phenylpropyl)amino]ethyl}biphenyl-4-carboxamide]: the IC50 at TAO was more than 5000 nM; on JIK, 50 to 500 nM; in assay [1], 500 to 5000 nM.

Consider `CC(NC(=O)c1ccc(OCc2ccccc2)cc1)C(=O)NC1CCc2ccccc2C1` (stereo not drawn) [Entry 19, N-[1-methyl-2-oxo-2-(1,2,3,4-tetrahydronaphthalen-2-ylamino)ethyl]-4-[(phenylmethyl)oxy]benzamide], for which the results for the IC50 (on TAO; at JIK; in assay [1]) were 500 to 5000 nM, 50 to 500 nM and 50 to 500 nM, respectively.

Regarding `CCCCc1ccc(C(=O)NCC(=O)NC2CCCc3ccccc32)cc1` (stereo not drawn) [Entry 29, 4-butyl-N-[2-oxo-2-(1,2,3,4-tetrahydronaphthalen-1-ylamino)ethyl]benzamide], the IC50 is more than 5000 nM on TAO, 500 to 5000 nM at JIK and 500 to 5000 nM in assay [1].

Take `O=C(COc1ccc(OC(F)(F)F)cc1)NCC(=O)NC1CCCc2ccccc21` (stereo not drawn) [Entry 31, N-(1,2,3,4-tetrahydronaphthalen-1-yl)-N˜2˜-[({4-[(trifluoromethyl)oxy]phenyl}oxy)acetyl]glycinamide]: the concentration for half-maximal inhibition (IC50) (at TAO; at JIK; in assay [1]) was 500 to 5000 nM in each case.

On to `O=C(CNC(=O)Nc1cc(C(F)(F)F)cc(C(F)(F)F)c1)NC1CCCc2ccccc21` (stereo not drawn) [Entry 47, N˜2˜-({[3,5-bis(trifluoromethyl)phenyl]amino}carbonyl)-N-(1,2,3,4-tetrahydronaphthalen-1-yl)glycinamide], for which the IC50 (at TAO; at JIK; in assay [1]) was more than 5000 nM throughout.

For the compound `O=C(CNC(=O)c1cnc2ccccc2c1)NC1CCCc2ccccc21` (stereo not drawn) [Entry 46, N-[2-oxo-2-(1,2,3,4-tetrahydronaphthalen-1-ylamino)ethyl]quinoline-3-carboxamide], the IC50 (at TAO; at JIK; in assay [1]) was more than 5000 nM throughout.

Take `COc1ccc2nc(NC(=O)CNC(=O)CC(NC(=O)c3ccccc3)c3ccccc3)sc2c1` (stereo not drawn) [Entry 63, N-{3-[(2-{[6-(methyloxy)-1,3-benzothiazol-2-yl]amino}-2-oxoethyl)amino]-3-oxo-1-phenylpropyl}benzamide]: the IC50 (at TAO; at JIK; in assay [1]) was less than 50 nM in each case.

Take `Cc1csc(NC(=O)CNC(=O)CC(NC(=O)c2ccccc2)c2ccccc2)n1` (stereo not drawn) [Entry 93, N-[3-({2-[(4-methyl-1,3-thiazol-2-yl)amino]-2-oxoethyl}amino)-3-oxo-1-phenylpropyl]benzamide]: the half-inhibitory concentration (IC50) (at TAO; on JIK; in assay [1]) was more than 5000 nM in each case.

For the compound `CCCCCOc1ccc(C(=O)NC(C)C(=O)NC2CCc3ccccc3C2)cc1` (stereo not drawn) [Entry 9, N-[1-methyl-2-oxo-2-(1,2,3,4-tetrahydronaphthalen-2-ylamino)ethyl]-4-(pentyloxy)benzamide], the IC50 on TAO was 500 to 5000 nM; at JIK, 50 to 500 nM; in assay [1], 50 to 500 nM.

As for `CCCCCCc1ccc(C(=O)NCC(=O)NC2CCCc3ccccc32)cc1` (stereo not drawn) [Entry 10, 4-hexyl-N-[2-oxo-2-(1,2,3,4-tetrahydronaphthalen-1-ylamino)ethyl]benzamide], the IC50 (on TAO; at JIK; in assay [1]) was 50 to 500 nM throughout.

As to `O=C(CNC(=O)c1ccc(N2CCCCC2)cc1)Nc1cccc2c1CCCC2` [Entry 89, N-[2-oxo-2-(5,6,7,8-tetrahydronaphthalen-1-ylamino)ethyl]-4-piperidin-1-ylbenzamide], the IC50 (on TAO; at JIK; in assay [1]) was more than 5000 nM throughout.

As for `O=C(CNC(=O)c1ccc(OCc2ccccc2)cc1)NC1CCCc2ccccc21` (stereo not drawn) [Entry 51, N-[2-oxo-2-(1,2,3,4-tetrahydronaphthalen-1-ylamino)ethyl]-4-[(phenylmethyl)oxy]benzamide], the IC50 is 50 to 500 nM at TAO, less than 50 nM on JIK and less than 50 nM in assay [1].
